According to patent US8034790B2, “Use of MDA-7 to inhibit pathogenic infectious organisms” (priority 2003, dated 2011):

B1: MDA-7 containing supernatant: MDA-7 containing supernatant from stably expressing 293-mda7 cells (protein, UniProt Q13007 52-206, looked up)
Interleukin-24: QEFHFGPCQVKGVVPQKLWEAFWAVKDTMQAQDNITSARLLQQEVLQNVSDAESCYLVHTLLEFYLKTVFKNYHNRTVEVRTLKSFSTLANNFVLIVSQLQPSQENEMFSIRDSAHRRFLLFRRAFKQLDVEAALTKALGEVDILLTWMQKFYKL
modifications: cell culture supernatant
notes: MDA-7 containing supernatant from stably expressing 293-mda7 cells
B2: BacM: MDA-7 protein made in insect cells using baculovirus vectors (protein, UniProt Q13007 52-206, looked up)
Interleukin-24: QEFHFGPCQVKGVVPQKLWEAFWAVKDTMQAQDNITSARLLQQEVLQNVSDAESCYLVHTLLEFYLKTVFKNYHNRTVEVRTLKSFSTLANNFVLIVSQLQPSQENEMFSIRDSAHRRFLLFRRAFKQLDVEAALTKALGEVDILLTWMQKFYKL
modifications: insect cell expressed
notes: MDA-7 protein made in insect cells using baculovirus vectors
B3: MDA-7: protein of 206 amino acids (SEQ ID NO: 2) encoded by mda-7 cDNA (protein, listed as Homo sapiens)
chain: MNFQQRLQSLWTLARPFCPPLLATASQMQMVVLPCLGFTLLLWSQVSGAQGQEFHFGPCQVKGVVPQKLWEAFWAVKDTMQAQDNITSARLLQQEVLQNVSDAESCYLVHTLLEFYLKTVFKNYHNRTVEVRTLKSFSTLANNFVLIVSQLQPSQENEMFSIRDSAHRRFLLFRRAFKQLDVEAALTKALGEVDILLTWMQKFYKL

What was measured:
H1299 cells = experiment: Cell viability / cell killing (trypan blue exclusion) in H1299 cells; type: cell-based, human; settings: for effect on cell killing by Ad-mda7 / cytotoxicity of secretion inhibitor alone / effect on cell killing due to Ad-luc or Ad-endostatin / cell killing by MDA-7 protein applied to cells: H1299 cells; for effect on cell killing by Ad-mda7: combination of Ad-mda7 and secretion inhibitor; for cytotoxicity of secretion inhibitor alone: dose that blocks MDA-7 secretion; for effect on cell killing due to Ad-luc or Ad-endostatin: p>0.05; for cell killing by MDA-7 protein applied to cells: viability after 3 days, EM 20-100 ng/ml, BacM 100 ng/ml, supernatant 10 and 100 ng/ml
Description: Construction and purification of replication-deficient human type 5 Adenovirus (Ad5) carrying the mda-7 gene was described previously (Mhashilkar et al., 2001). Cell lines were infected with Ad-mda7 or Ad-luc with indicated MOIs. Cells were plated at 10^5-10^6 cells/well in a 6-well plate format for protein expression, trypan-blue exclusion assay or apoptosis assays. For transfection with pShooter vectors, 1 μg of plasmid DNA was used to transfect cells using lipofectamine protocol as described (Mhashilkar et al., 2003).
Cell viability was determined by trypan blue exclusion assay or Live/Dead assay. Cells were trypsinized and a small aliquot was suspended 1:1 volume with 0.1% trypan blue. Total cell numbers and cell viability counts were assessed using a hemocytometer under light microscopy. For Live/Dead assay (Molecular Probes, Eugene Oreg.) cells were plated in chamber slides (Nunc) and then treated with pShooter-plasmid vectors or with Ad− vectors. Two-four days later the cells were treated with the probes, Calcein AM and Ethidium homodimer (both at 5 uM final conc. in PBS), for 30 minutes and then live (green) and dead (red) cells were counted via fluorescence microscopy. All assays were performed at least three times.

endostatin = experiment: Endostatin secretion from Ad-endostatin treated H1299 cells; type: cell-based, human; settings: H1299 cells treated with Ad-endostatin
From the text: To address whether apoptosis induction is due to intracellular MDA-7 or is simply a non-specific effect due to protein accumulation in the ER, we performed similar experiments using an adenoviral vector encoding endostatin as a control glycosylated secreted protein.

MDA-7 protein = MDA-7 protein expression and secretion by western blot (cell lysates and supernatants); type: cell-based, human; settings: Ad-mda7 treated H1299 cells
Description: Cell lysates ([…]) were suspended in 500 μl of Laemmli buffer with 5% 2-mercapto-ethanol (2ME) or supernatants (1:1 mixing with Laemmli buffer+2ME), were analyzed by SDS gel electrophoresis and western blot analysis. Expression of various proteins was determined by using the following primary antibodies: rabbit or mouse anti-human MDA-7 (Introgen Therapeutics, Inc), goat anti-human BiP/GRP-78, rabbit anti-human GADD34, goat anti-human PP2A, goat anti-human PERK, rabbit anti-human XBP-1 (Santa Cruz Biotechnologies, Santa Cruz, Calif.), rabbit anti-human caspase 7 and caspase-9 (Cell Signaling Technology, Beverly, Mass.). Antibodies against beta-actin, and alpha-tubulin were purchased from Sigma. Following incubation with horseradish peroxidase-labeled secondary antibody (Amersham Biosciences, Piscataway, N.J.) the proteins were visualized on enhanced chemiluminescence film (Hyperfilm, Amersham Biosciences, Piscataway, N.J.) by application of Amersham's enhanced chemiluminescence western blotting detection system. All westerns were performed 2-4 times.
H1299 cells were treated with 1000 vp/cell Ad-mda7 and the indicated concentrations of tunicamycin. Cells were harvested 24 hr later and analyzed for intracellular and secreted MDA-7 protein by western blot and apoptosis via Annexin V assay. Control cultures of cells treated with only tunicamycin were also assessed for apoptosis (Tun. Toxicity).

Row | Molecule | effect on cell killing by Ad-mda7 (H1299 cells) | cytotoxicity of secretion inhibitor alone (H1299 cells) | effect on cell killing due to Ad-luc or Ad-endostatin (H1299 cells) | effect on endostatin secretion (endostatin) | cell killing by MDA-7 protein applied to cells (H1299 cells) | also measured
1 | C[C@H]1CCC/C=C/[C@@H]2C[C@H](O)C[C@H]2[C@H](O)/C=C/C(=O)O1 [BFA, Brefeldin A] | slightly enhanced cell killing | not cytotoxic | Neither BFA nor tunicamycin significantly modulated cell killing | potently blocked endostatin secretion |  | inhibition of MDA-7 secretion (MDA-7 protein; 1 μg/ml BFA): completely block MDA-7 secretion; concentration required to completely block secretion of MDA-7 protein (MDA-7 protein): less than 1 μg/ml
2 | Tunicamycin | slightly enhanced cell killing | not cytotoxic | Neither BFA nor tunicamycin significantly modulated cell killing | potently blocked endostatin secretion |  | reduction of secreted MDA-7 (MDA-7 protein; 1 μg/ml tunicamycin): > 60%; inhibition of MDA-7 secretion (MDA-7 protein; 2 μg/ml tunicamycin): completely blocked secretion
3 | B1 |  |  |  |  | did not induce cell death | cell death above background levels (H1299 cells; supernatant from stably expressing 293-mda7 cells applied to H1299 cells, 10 and 100 ng/ml, 3 days): < 10%
4 | B2 |  |  |  |  | failed to induce significant killing | 
5 | B3 |  |  |  |  |  | cell killing (H1299 cells; H1299 cells treated with MDA-7 protein and then transduced with Ad-luc): Only background killing was observed; anti-angiogenic activity, potency relative to endostatin (Anti-angiogenic activity): 50 fold
